IC50 data for ten molecules are collected here from patent US12398154B2, “Azaquinazoline pan-KRas inhibitors” (Mirati Therapeutics, Inc., priority 2020, dated 2025).

The target of one assay is KRas G12R (Homo sapiens, UniProt P01116, G12R). The assay is described as follows: biochemical.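 Note: TR-FRET displacement assay of compound binding to KRas, read after one hour at room temperature, potency from a four-parameter fit of percent-of-control values.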
A further assay concerns pERK in A549 cells. As to the kind of experiment: Inhibition of KRas phosphorylation of ERK (Cisbio HTRF pERK assay). Particulars: Homo sapiens, A549, read-out: Inhibition (HTRF IC50) of KRas-mediated Phosphorylation of ERK, A549. Background: TR-FRET usually uses a lanthanide donor and a delayed reading to cut background.
The next assay relates to pERK in PSN1 cells. The assay is described as above. Particulars: Homo sapiens, PSN1, 3 h, read-out: Inhibition (HTRF IC50) of KRas-mediated Phosphorylation of ERK, PSN1.
The next assay addresses KRas G12V (Homo sapiens, UniProt P01116, G12V). As to the kind of experiment: biochemical.
A further assay addresses KRas G12D (Homo sapiens, UniProt P01116, G12D). As to the kind of experiment: biochemical.
Another assay concerns pERK in MKN1 cells. As to the kind of experiment: Inhibition of KRas phosphorylation of ERK (Cisbio HTRF pERK assay). Particulars: Homo sapiens, MKN-1, 3 h, read-out: Inhibition (HTRF IC50) of KRas-mediated Phosphorylation of ERK, MKN1.
A further assay deals with pERK in ASPC1 cells. Described as above. Particulars: Homo sapiens, ASPC1, read-out: Inhibition (HTRF IC50) of KRas-mediated Phosphorylation of ERK, AsPC-1.
The next assay has as its system pERK in H727 cells. The assay is described as above. Particulars: Homo sapiens, NCI-H727, read-out: Inhibition (HTRF IC50) of KRas-mediated Phosphorylation of ERK, H727.
Another assay deals with pERK in HCT116 cells. The assay is described as above. Particulars: Homo sapiens, HCT-116, read-out: Inhibition (HTRF IC50) of KRas-mediated Phosphorylation of ERK, HCT116.
Another assay relates to pERK in H460 cells. The description is as above. Particulars: Homo sapiens, NCI-H460, read-out: Inhibition (HTRF IC50) of KRas-mediated Phosphorylation of ERK, H460.

What is called IC50 is the midpoint of a concentration-inhibition curve.

KRas G12R, sequence (P01116 1-169 isoform P01116-2 G12R): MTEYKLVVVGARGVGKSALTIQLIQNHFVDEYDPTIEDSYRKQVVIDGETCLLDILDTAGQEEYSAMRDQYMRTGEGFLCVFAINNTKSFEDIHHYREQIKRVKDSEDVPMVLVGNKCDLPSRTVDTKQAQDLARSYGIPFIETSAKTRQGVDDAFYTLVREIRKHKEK
KRas G12D, sequence (P01116 1-169 isoform P01116-2 G12D): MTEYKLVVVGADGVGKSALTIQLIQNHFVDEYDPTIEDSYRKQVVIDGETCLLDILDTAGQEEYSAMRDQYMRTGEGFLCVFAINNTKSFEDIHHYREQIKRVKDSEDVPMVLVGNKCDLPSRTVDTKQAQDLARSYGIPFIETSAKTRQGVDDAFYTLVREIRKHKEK
KRas G12V, sequence (P01116 1-169 isoform P01116-2 G12V): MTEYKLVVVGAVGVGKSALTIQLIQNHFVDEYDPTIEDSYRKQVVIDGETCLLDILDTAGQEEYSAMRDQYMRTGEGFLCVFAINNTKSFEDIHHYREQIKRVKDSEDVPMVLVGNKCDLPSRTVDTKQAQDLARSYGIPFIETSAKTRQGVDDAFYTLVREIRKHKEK

On to `CCc1c(F)ccc2cc(O)cc(-c3ncc4c(N5CCCC6(CNS(=O)(=O)N6)C5)nc(OCC5(CN(C)C)CC5)nc4c3F)c12` (stereo not shown) [Example 364, 7-(2-((1-((dimethylamino)methyl)cyclopropyl)methoxy)-7-(8-ethyl-7-fluoro-3-hydroxynaphthalen-1-yl)-8-fluoropyrido[4,3-d]pyrimidin-4-yl)-2-thia-1,3,7-triazaspiro[4.5]decane 2,2-dioxide], for which the IC50 against KRas G12R is at most 2 nM; in the assay with pERK in A549 cells, 219 nM; in the assay on pERK in PSN1 cells, at least 10 µM; against KRas G12V it was at most 2 nM; on KRas G12D, at most 2 nM; in the assay on pERK in MKN1 cells, 26 nM. Further, the IC50 turned out to be 121 nM in the assay with pERK in ASPC1 cells, 578 nM in the assay on pERK in H727 cells, 645 nM with pERK in HCT116 cells and 117 nM with pERK in H460 cells.

As for `C#Cc1c(F)ccc2cc(O)cc(-c3ncc4c(N5CC6CC(O)CC5C6)nc(OC[C@@]56CCCN5C[C@H](F)C6)nc4c3F)c12` (stereo partly drawn) [Example 390, 6-(7-(8-ethynyl-7-fluoro-3-hydroxynaphthalen-1-yl)-8-fluoro-2-(((2R,7aS)-2-fluorohexahydro-1H-pyrrolizin-7a-yl)methoxy)pyrido[4,3-d]pyrimidin-4-yl)-6-azabicyclo[3,2,1]octan-3-ol], the IC50 against KRas G12R was at most 2 nM; with pERK in A549 cells, 114 nM; in the assay with pERK in PSN1 cells, 0.748 µM; at KRas G12V, at most 2 nM; against KRas G12D it was at most 2 nM; with pERK in MKN1 cells, 8 nM. For the same molecule, the IC50 with pERK in ASPC1 cells came out at 195 nM; in the assay on pERK in H727 cells it was 16 nM; in the assay on pERK in HCT116 cells, 190 nM; in the assay with pERK in H460 cells it was 175 nM.

As for `C#Cc1c(F)ccc2cc(O)cc(-c3ncc4c(N5CCCn6nc(N)cc6C5)nc(OC[C@@]56CCCN5C[C@H](F)C6)nc4c3F)c12` [Example 394, 4-(4-(2-amino-7,8-dihydro-4H-pyrazolo[1,5-a][1,4]diazepin-5(6H)-yl)-8-fluoro-2-(((2R,7aS)-2-fluorohexahydro-1H-pyrrolizin-7a-yl)methoxy)pyrido[4,3-d]pyrimidin-7-yl)-5-ethynyl-6-fluoronaphthalen-2-ol], the IC50 against KRas G12R was at most 2 nM; in the assay with pERK in A549 cells, 567 nM; in the assay with pERK in PSN1 cells, at least 10 µM; at KRas G12V, at most 2 nM; on KRas G12D, at most 2 nM; in the assay on pERK in MKN1 cells, 46 nM. In addition, the IC50 was determined as 158 nM in the assay on pERK in ASPC1 cells, 368 nM in the assay on pERK in H727 cells, 1720 nM in the assay on pERK in HCT116 cells and 1070 nM in the assay with pERK in H460 cells.

In the case of `Oc1cc(-c2ncc3c(N4CC5CC(O)CC4C5)nc(OC[C@@]45CCCN4C[C@H](F)C5)nc3c2F)c2c(Br)c(F)ccc2c1` (stereo partly drawn) [Example 403, 6-(7-(8-bromo-7-fluoro-3-hydroxynaphthalen-1-yl)-8-fluoro-2-(((2R,7aS)-2-fluorohexahydro-1H-pyrrolizin-7a-yl)methoxy)pyrido[4,3-d]pyrimidin-4-yl)-6-azabicyclo[3.2.1]octan-3-ol], the IC50 on KRas G12R is at most 2 nM; in the assay on pERK in A549 cells, 96 nM; with pERK in PSN1 cells, 3.81 µM; at KRas G12V, at most 2 nM; at KRas G12D, 6 nM; in the assay on pERK in MKN1 cells it was 20 nM. Besides, the 50% inhibitory concentration (IC50) in the assay on pERK in ASPC1 cells came out at 426 nM; in the assay on pERK in H727 cells it was 79 nM; in the assay with pERK in HCT116 cells, 487 nM; with pERK in H460 cells, 182 nM.

As to `O=C1CC2(CCCN(c3nc(OC[C@@]45CCCN4C[C@H](F)C5)nc4c(F)c(-c5cc(O)cc6ccc(F)c(Br)c56)ncc34)C2)N1` (stereo partly drawn) [Example 405, 6-(7-(8-bromo-7-fluoro-3-hydroxynaphthalen-1-yl)-8-fluoro-2-(((2R,7aS)-2-fluorohexahydro-1H-pyrrolizin-7a-yl)methoxy)pyrido[4,3-d]pyrimidin-4-yl)-1,6-diazaspiro[3.5]nonan-2-one], the IC50 is at most 2 nM on KRas G12R; 247 nM in the assay on pERK in A549 cells; 6.73 µM in the assay with pERK in PSN1 cells; at most 2 nM on KRas G12V; at most 2 nM on KRas G12D; 45 nM in the assay with pERK in MKN1 cells. The IC50 in the assay with pERK in ASPC1 cells was 238 nM; in the assay with pERK in H727 cells, 114 nM; in the assay on pERK in HCT116 cells, 2210 nM; in the assay with pERK in H460 cells, 155 nM.

On to `CCc1c(F)ccc2cc(O)cc(-c3ncc4c(N5CCCC6(COC(=O)N6)C5)nc(OC[C@@]56CCCN5C[C@H](F)C6)nc4c3F)c12` (stereo partly drawn) [Example 478, 7-(7-(8-ethyl-7-fluoro-3-hydroxynaphthalen-1-yl)-8-fluoro-2-(((2R,7aS)-2-fluorohexahydro-1H-pyrrolizin-7a-yl)methoxy)pyrido[4,3-d]pyrimidin-4-yl)-3-oxa-1,7-diazaspiro[4.5]decan-2-one], for which the IC50 is 5 nM against KRas G12R; 1250 nM with pERK in A549 cells; at least 10 µM in the assay with pERK in PSN1 cells; at most 2 nM at KRas G12V; at most 2 nM on KRas G12D; 80 nM in the assay on pERK in MKN1 cells. Besides, the IC50 was determined as 192 nM in the assay with pERK in ASPC1 cells, 871 nM in the assay with pERK in H727 cells, 5430 nM in the assay on pERK in HCT116 cells and 713 nM in the assay on pERK in H460 cells.

Consider `CCc1c(F)ccc2cc(O)cc(-c3ncc4c(N5CCOCC6(COC6)C5)nc(OC[C@@]56CCCN5C[C@H](F)C6)nc4c3F)c12` [Example 480, 5-ethyl-6-fluoro-4-(8-fluoro-2-(((2R,7aS)-2-fluorohexahydro-1H-pyrrolizin-7a-yl)methoxy)-4-(2,6-dioxa-9-azaspiro[3.6]decan-9-yl)pyrido[4,3-d]pyrimidin-7-yl)naphthalen-2-ol], for which the IC50 against KRas G12R is 6 nM; in the assay on pERK in A549 cells, 215 nM; in the assay with pERK in PSN1 cells, at least 10 µM; on KRas G12V it was 7 nM; at KRas G12D, 38 nM; in the assay on pERK in MKN1 cells, 6 nM. Also, the IC50 was 240 nM in the assay with pERK in ASPC1 cells, 100 nM with pERK in H727 cells, 111 nM in the assay on pERK in HCT116 cells and 47 nM in the assay with pERK in H460 cells.

On to `CCc1c(F)ccc2cc(O)cc(-c3ncc4c(N5C[C@H](O)CC[C@@H](O)C5)nc(OC[C@@]56CCCN5C[C@H](F)C6)nc4c3F)c12` [Example 490, (3R,6R)-1-(7-(8-ethyl-7-fluoro-3-hydroxynaphthalen-1-yl)-8-fluoro-2-(((2R,7aS)-2-fluorohexahydro-1H-pyrrolizin-7a-yl)methoxy)pyrido[4,3-d]pyrimidin-4-yl)azepane-3,6-diol], for which the half-inhibitory concentration (IC50) was 3 nM against KRas G12R; 298 nM in the assay on pERK in A549 cells; at least 10 µM in the assay on pERK in PSN1 cells; at most 2 nM at KRas G12V; at most 2 nM against KRas G12D; 41 nM in the assay with pERK in MKN1 cells. For the same molecule, the IC50 with pERK in ASPC1 cells is 395 nM; with pERK in H727 cells, 205 nM; in the assay with pERK in HCT116 cells, 368 nM; in the assay on pERK in H460 cells it was 305 nM.

In the case of `CCc1c(F)ccc2cc(O)cc(-c3ncc4c(N5CCOCC(OC)C5)nc(OC[C@@]56CCCN5C[C@H](F)C6)nc4c3F)c12` (stereo partly drawn) [Example 499, 5-ethyl-6-fluoro-4-(8-fluoro-2-(((2R,7aS)-2-fluorotetrahydro-1H-pyrrolizin-7a(5H)-yl)methoxy)-4-(6-methoxy-1,4-oxazepan-4-yl)pyrido[4,3-d]pyrimidin-7-yl)naphthalen-2-ol], the IC50 at KRas G12R was 6 nM; in the assay on pERK in A549 cells it was 145 nM; with pERK in PSN1 cells it was at least 10 µM; against KRas G12V, 8 nM; against KRas G12D, 27 nM; in the assay on pERK in MKN1 cells, 13 nM. For the same molecule, the IC50 in the assay with pERK in ASPC1 cells was 109 nM; in the assay with pERK in H727 cells, 100 nM; in the assay on pERK in HCT116 cells it was 474 nM; in the assay with pERK in H460 cells it was 162 nM.

On to `CCc1c(F)ccc2cc(O)cc(-c3ncc4c(N5CCCC6(CCC(F)(F)C6)C5)nc(OC[C@@]56CCCN5C[C@H](F)C6)nc4c3F)c12` (stereo partly drawn) [Example 509, 4-(4-(2,2-difluoro-7-azaspiro[4.5]decan-7-yl)-8-fluoro-2-(((2R,7aS)-2-fluorohexahydro-1H-pyrrolizin-7a-yl)methoxy)pyrido[4,3-d]pyrimidin-7-yl)-5-ethyl-6-fluoronaphthalen-2-ol], for which the IC50 amounted to 12 nM at KRas G12R; 211 nM in the assay on pERK in A549 cells; 6.14 µM in the assay on pERK in PSN1 cells; 6 nM against KRas G12V; 6 nM on KRas G12D; 89 nM with pERK in MKN1 cells. In addition, the IC50 was determined as 144 nM in the assay on pERK in ASPC1 cells, 338 nM with pERK in H727 cells, 314 nM with pERK in HCT116 cells and 206 nM in the assay on pERK in H460 cells.
